Results reported in patent publication US20060004088A1, “Furan derivatives for preventing and curing osteoporosis and pharmaceutical compositions containing the same” (OCT INC., priority 2002, published 2006).

Tested on: osteoclast pregenitor cells
Test: Inhibition rates of furan derivatives versus osteoclast formation (TRAP staining)
Type: cell-based, mice
Settings: TRAP-positive multinucleated cells, untreated control set as 100%
Protocol: First, bone marrow cells were isolated, as follow. After sacrificing 7-9 week female mice by cervical dislocation, femur and tibia were excised aseptically while removing attached soft tissues. After cutting both ends of long bones, 1 ml of an enzyme solution, containing 0.1% collagenase (Gibco), 0.05% trypsin and 0.5 mM EDTA (Gibco), was injected to the bone marrow cavity at one end using a syringe with a 26-guage needle, and bone marrow was then collected. After shaking the recovered bone marrow for 30 min, bone marrow cells were collected, and cultured in α-minimum essential medium (α-MEM) supplemented with 10% FBS for 24 hrs. Then, non-adherent cells were collected, which are osteoclast pregenitors, aliquotted onto culture plates at a density of 2×10^5 cells per well, and cultured for 8 days in α-MEM supplemented with 20 ng/ml of macrophage-colony stimulating factor (M-CSF, Peprotech, USA) and 30 ng/ml RANKL (Peprotech, USA). During the 8 days of culturing, the cells were treated with the Compound 1. Thereafter, osteoclast formation was investigated by fixing the cultured cells and then carrying out TRAP staining, as described in the following Experimental Example 2.2. In addition, resorption activity of osteoclasts was investigated by measuring the absorption area after removing osteoclasts in cultures in calcium phosphate-coated plates, as described in Experimental Example 2.3, below.
After cell culture, the adherent cells were washed with PBS, and TRAP staining was performed, as follows. After being fixed with citrate-acetate-formaldehyde for 5 min, the cells were incubated for 1 hr in acetate buffer (prewarmed at 37° C., pH 5.0) containing naphthol AS-BI phosphate, fast Garnet GBC and 7 mM tartrate buffer (pH 5.0). TRAP-positive multinucleated cells having 3 or more nuclei were considered as osteoclasts.
Osteoclast pregenitor cells were isolated, and their differentiation to mature osteoclasts was induced, according to the same method as in the Experimental Example 2-1, while treated with each of the furan derivatives of the present invention. According to the same method as in the Experimental Example 2-2, TRAP staining performed, and TRAP-positive multinucleated cells were counted. An inhibition rate of each furan derivative against osteoclast formation was expressed as percentage, wherein the number of stained cells in a control not treated the furan derivative was arbitrarily set as 100% (Tables 14 to 16).

`O=Cc1ccc(COC(=O)Cc2ccccc2)o1` [Compound 32] was tested, and the “Inhibition rate against osteoclast formation, %” value (shortened to “Inhibition rate … %”) (0.1 μM) was 0%, the “Inhibition rate … %” value (1 μM) was 23.3% and the “Inhibition rate … %” value (10 μM) was 50%.

In the case of `O=Cc1ccc(COC(=O)Cc2c(F)cccc2F)o1` [Compound 33], the “Inhibition rate … %” value (0.1 μM) is reported as 0%, the “Inhibition rate … %” value (1 μM) is reported as 3.3% and the “Inhibition rate … %” value (10 μM) is reported as 50%.

`O=Cc1ccc(COC(=O)Cc2c(F)cccc2Cl)o1` [Compound 34] was tested, and the “Inhibition rate … %” value (0.1 μM) was 0%, the “Inhibition rate … %” value (1 μM) was 16.7% and the “Inhibition rate … %” value (10 μM) was 36.7%.

In the case of `O=Cc1ccc(COC(=O)Cc2cccc(Cl)c2)o1` [Compound 35], the “Inhibition rate … %” value (0.1 μM) is reported as 0%, the “Inhibition rate … %” value (1 μM) is reported as 23.33% and the “Inhibition rate … %” value (10 μM) is reported as 43.33%.

For `O=Cc1ccc(COC(=O)Cc2ccsc2)o1` [Compound 36], the “Inhibition rate … %” value (0.1 μM) was 0%, the “Inhibition rate … %” value (1 μM) was 6.67% and the “Inhibition rate … %” value (10 μM) was 30%.

In the case of `O=Cc1ccc(COC(=O)Cc2cccc(F)c2)o1` [Compound 37], the “Inhibition rate … %” value (0.1 μM) is reported as 0%, the “Inhibition rate … %” value (1 μM) is reported as 10% and the “Inhibition rate … %” value (10 μM) is reported as 6.67%.

For `O=Cc1ccc(COC(=O)Cc2ccc3ccccc3c2)o1` [Compound 38], the “Inhibition rate … %” value (0.1 μM) was 0%, the “Inhibition rate … %” value (1 μM) was 23.33% and the “Inhibition rate … %” value (10 μM) was 20%.

With `O=Cc1ccc(COC(=O)Cc2ccc(F)cc2F)o1` [Compound 39] the “Inhibition rate … %” value (0.1 μM) was 0%, the “Inhibition rate … %” value (1 μM) was 10% and the “Inhibition rate … %” value (10 μM) was 56.67%.

With `O=Cc1ccc(COC(=O)C(c2ccccc2)(c2ccccc2)c2ccccc2)o1` [Compound 40] the “Inhibition rate … %” value (0.1 μM) was 0%, the “Inhibition rate … %” value (1 μM) was 16.67% and the “Inhibition rate … %” value (10 μM) was 43.33%.

With `COc1cccc(F)c1CC(=O)OCc1ccc(C=O)o1` [Compound 41] the “Inhibition rate … %” value (0.1 μM) was 0%, the “Inhibition rate … %” value (1 μM) was 6.67% and the “Inhibition rate … %” value (10 μM) was 56.67%.

With `COc1ccc(F)c(CC(=O)OCc2ccc(C=O)o2)c1` [Compound 42] the “Inhibition rate … %” value (0.1 μM) was 0%, the “Inhibition rate … %” value (1 μM) was 23.33% and the “Inhibition rate … %” value (10 μM) was 53.33%.

For `O=Cc1ccc(COC(=O)Nc2cccc(Cl)c2)o1` [Compound 49], the “Inhibition rate … %” value (0.1 μM) was 0%, the “Inhibition rate … %” value (1 μM) was 10% and the “Inhibition rate … %” value (10 μM) was 0%.

In the case of `O=Cc1ccc(COC(=O)Nc2ccc(Br)cc2)o1` [Compound 50], the “Inhibition rate … %” value (0.1 μM) is reported as 0%, the “Inhibition rate … %” value (1 μM) is reported as 10% and the “Inhibition rate … %” value (10 μM) is reported as 0%.

In the case of `CCCCNC(=O)OCc1ccc(C=O)o1` [Compound 53], the “Inhibition rate … %” value (0.1 μM) is reported as 0%, the “Inhibition rate … %” value (1 μM) is reported as 10% and the “Inhibition rate … %” value (10 μM) is reported as 36.67%.

For `O=Cc1ccc(COC(=O)Nc2ccc(Cl)c(Cl)c2)o1` [Compound 54], the “Inhibition rate … %” value (0.1 μM) was 0%, the “Inhibition rate … %” value (1 μM) was 0% and the “Inhibition rate … %” value (10 μM) was 10%.

For `O=Cc1ccc(COC(=O)Nc2ccccc2Cl)o1` [Compound 55], the “Inhibition rate … %” value (0.1 μM) was 0%, the “Inhibition rate … %” value (1 μM) was 20% and the “Inhibition rate … %” value (10 μM) was 20%.

With `C=CCc1ccc(OCc2ccc(C(=O)OC)o2)c(OC)c1` [Compound 59] the “Inhibition rate … %” value (0.1 μM) was 0%, the “Inhibition rate … %” value (1 μM) was 0% and the “Inhibition rate … %” value (10 μM) was 15.95%.

With `COC(=O)c1ccc(COc2ccc(Cl)cc2Cl)o1` [Compound 60] the “Inhibition rate … %” value (0.1 μM) was 0%, the “Inhibition rate … %” value (1 μM) was 0% and the “Inhibition rate … %” value (10 μM) was 32.75%.

For `COC(=O)c1ccc(COc2ccccc2Cl)o1` [Compound 61], the “Inhibition rate … %” value (0.1 μM) was 0%, the “Inhibition rate … %” value (1 μM) was 0% and the “Inhibition rate … %” value (10 μM) was 11.66%.

For `COC(=O)c1ccc(COc2ccc(Cl)cc2[N+](=O)[O-])o1` [Compound 66], the “Inhibition rate … %” value (0.1 μM) was 0%, the “Inhibition rate … %” value (1 μM) was 0% and the “Inhibition rate … %” value (10 μM) was 13.58%.

With `COC(=O)c1ccc(COc2ccccc2[N+](=O)[O-])o1` [Compound 67] the “Inhibition rate … %” value (0.1 μM) was 0%, the “Inhibition rate … %” value (1 μM) was 0% and the “Inhibition rate … %” value (10 μM) was 15.92%.

For `COC(=O)c1ccc(COc2cc(C)ccc2C(C)C)o1` [Compound 68], the “Inhibition rate … %” value (0.1 μM) was 0% and the “Inhibition rate … %” value (1 μM) was 0%.

In the case of `COC(=O)c1ccc(COc2ccc3c(c2)CCC3)o1` [Compound 70], the “Inhibition rate … %” value (0.1 μM) is reported as 0%, the “Inhibition rate … %” value (1 μM) is reported as 0% and the “Inhibition rate … %” value (10 μM) is reported as 3.34%.

In the case of `COC(=O)c1ccc(COc2ccc(Cl)c(C)c2)o1` [Compound 75], the “Inhibition rate … %” value (0.1 μM) is reported as 0%, the “Inhibition rate … %” value (1 μM) is reported as 0% and the “Inhibition rate … %” value (10 μM) is reported as 0.78%.

For `COC(=O)c1ccc(COc2ccc(I)cc2)o1` [Compound 79], the “Inhibition rate … %” value (0.1 μM) was 0%, the “Inhibition rate … %” value (1 μM) was 0% and the “Inhibition rate … %” value (10 μM) was 34.65%.

In the case of `COC(=O)c1ccc(COc2ccc(Cl)cc2)o1` [Compound 80], the “Inhibition rate … %” value (0.1 μM) is reported as 0%, the “Inhibition rate … %” value (1 μM) is reported as 0% and the “Inhibition rate … %” value (10 μM) is reported as 15.19%.

For `COC(=O)c1ccc(CN(C)C)o1` [Compound 85], the “Inhibition rate … %” value (0.1 μM) was 0%, the “Inhibition rate … %” value (1 μM) was 0% and the “Inhibition rate … %” value (10 μM) was 3.75%.

In the case of `COC(=O)c1ccc(CNc2ccccc2)o1` [Compound 89], the “Inhibition rate … %” value (0.1 μM) is reported as 0%, the “Inhibition rate … %” value (1 μM) is reported as 0% and the “Inhibition rate … %” value (10 μM) is reported as 12.6%.

For `COC(=O)c1ccc(CNC(C)(C)C)o1` [Compound 91], the “Inhibition rate … %” value (0.1 μM) was 0%, the “Inhibition rate … %” value (1 μM) was 0% and the “Inhibition rate … %” value (10 μM) was 9.89%.

With `COc1ccccc1OCc1ccc(C(=O)OC(C)C)o1` [Compound 94] the “Inhibition rate … %” value (0.1 μM) was 0%, the “Inhibition rate … %” value (1 μM) was 0% and the “Inhibition rate … %” value (10 μM) was 5.9%.

For `CC(C)OC(=O)c1ccc(COc2cc(Cl)ccc2Cl)o1` [Compound 95], the “Inhibition rate … %” value (0.1 μM) was 0%, the “Inhibition rate … %” value (1 μM) was 0% and the “Inhibition rate … %” value (10 μM) was 0.97%.

`COc1ccccc1OCc1ccc(C(=O)Oc2ccc(Cl)cc2)o1` [Compound 97] was tested, and the “Inhibition rate … %” value (0.1 μM) was 0%, the “Inhibition rate … %” value (1 μM) was 0% and the “Inhibition rate … %” value (10 μM) was 12.75%.

In the case of `O=C(Oc1ccccc1)c1ccc(COc2ccccc2Cl)o1` [Compound 98], the “Inhibition rate … %” value (0.1 μM) is reported as 0%, the “Inhibition rate … %” value (1 μM) is reported as 0% and the “Inhibition rate … %” value (10 μM) is reported as 9.89%.

With `CCCc1ccc(OCc2ccc(C(=O)O)o2)cc1` [Compound 100] the “Inhibition rate … %” value (0.1 μM) was 0%, the “Inhibition rate … %” value (1 μM) was 0% and the “Inhibition rate … %” value (10 μM) was 10.46%.

With `O=C(O)c1ccc(COc2ccc(F)cc2)o1` [Compound 102] the “Inhibition rate … %” value (0.1 μM) was 0%, the “Inhibition rate … %” value (1 μM) was 0% and the “Inhibition rate … %” value (10 μM) was 5.05%.

For `O=C(O)c1ccc(COc2ccc(Br)cc2)o1` [Compound 103], the “Inhibition rate … %” value (0.1 μM) was 0%, the “Inhibition rate … %” value (1 μM) was 0% and the “Inhibition rate … %” value (10 μM) was 2.77%.

For `O=C(O)c1ccc(COc2ccccc2Cl)o1` [Compound 107], the “Inhibition rate … %” value (0.1 μM) was 0%, the “Inhibition rate … %” value (1 μM) was 0% and the “Inhibition rate … %” value (10 μM) was 32%.

In the case of `O=C(O)c1ccc(COc2ccccc2Br)o1` [Compound 108], the “Inhibition rate … %” value (0.1 μM) is reported as 0%, the “Inhibition rate … %” value (1 μM) is reported as 0% and the “Inhibition rate … %” value (10 μM) is reported as 14.72%.

With `O=C(O)c1ccc(COc2cc(Cl)ccc2Cl)o1` [Compound 109] the “Inhibition rate … %” value (0.1 μM) was 0%, the “Inhibition rate … %” value (1 μM) was 0% and the “Inhibition rate … %” value (10 μM) was 3.25%.

For `O=C(O)c1ccc(COc2cccc(Cl)c2)o1` [Compound 112], the “Inhibition rate … %” value (0.1 μM) was 0%, the “Inhibition rate … %” value (1 μM) was 0% and the “Inhibition rate … %” value (10 μM) was 7.79%.

In the case of `CC(C)c1ccc(OCc2ccc(C(=O)O)o2)cc1` [Compound 114], the “Inhibition rate … %” value (0.1 μM) is reported as 0%, the “Inhibition rate … %” value (1 μM) is reported as 0% and the “Inhibition rate … %” value (10 μM) is reported as 4.2%.

`O=C(O)c1ccc(COc2cccc3ccccc23)o1` [Compound 117] was tested, and the “Inhibition rate … %” value (0.1 μM) was 0%, the “Inhibition rate … %” value (1 μM) was 0% and the “Inhibition rate … %” value (10 μM) was 5.86%.
